From patent US20240246942A1, “KINASE INHIBITORS FOR THE TREATMENT OF NEURODEGENERATIVE DISEASES” (priority 2020, published 2024) come the findings set out here.

Common to all, as to assay: biochemical
Test [1] concerns the target T1, panel of 374 wild-type kinases (Homo sapiens, UniProt P29323).
T1 construct: purchased Reaction Biology Corporation
T1 sequence (P29323 19-1055): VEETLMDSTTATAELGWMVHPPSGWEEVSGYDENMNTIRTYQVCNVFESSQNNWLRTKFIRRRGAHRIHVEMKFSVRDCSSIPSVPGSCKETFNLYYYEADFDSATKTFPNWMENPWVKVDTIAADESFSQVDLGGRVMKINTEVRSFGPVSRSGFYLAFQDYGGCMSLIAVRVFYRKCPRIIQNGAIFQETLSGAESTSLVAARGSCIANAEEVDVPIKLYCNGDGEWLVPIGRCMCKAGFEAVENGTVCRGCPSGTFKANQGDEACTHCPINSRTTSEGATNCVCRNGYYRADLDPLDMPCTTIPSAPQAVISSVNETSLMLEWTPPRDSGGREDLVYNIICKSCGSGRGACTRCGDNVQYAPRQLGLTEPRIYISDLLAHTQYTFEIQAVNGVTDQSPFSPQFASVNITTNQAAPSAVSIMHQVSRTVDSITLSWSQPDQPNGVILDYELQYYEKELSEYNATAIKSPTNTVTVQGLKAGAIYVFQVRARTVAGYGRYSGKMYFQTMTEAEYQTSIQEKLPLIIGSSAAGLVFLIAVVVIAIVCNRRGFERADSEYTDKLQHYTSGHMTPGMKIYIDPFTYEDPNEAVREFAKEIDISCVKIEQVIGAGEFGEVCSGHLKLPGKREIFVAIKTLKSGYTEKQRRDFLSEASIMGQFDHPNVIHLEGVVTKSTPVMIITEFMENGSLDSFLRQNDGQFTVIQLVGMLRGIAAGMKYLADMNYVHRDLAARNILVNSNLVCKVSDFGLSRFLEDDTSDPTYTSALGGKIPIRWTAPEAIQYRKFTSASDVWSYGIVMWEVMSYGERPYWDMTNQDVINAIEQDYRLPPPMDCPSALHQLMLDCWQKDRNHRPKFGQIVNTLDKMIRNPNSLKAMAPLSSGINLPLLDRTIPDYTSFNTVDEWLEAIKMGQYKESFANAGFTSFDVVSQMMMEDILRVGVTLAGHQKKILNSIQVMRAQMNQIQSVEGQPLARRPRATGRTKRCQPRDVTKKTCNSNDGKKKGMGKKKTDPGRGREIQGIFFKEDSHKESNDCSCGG
The settings on record: read-out: % Enzyme Activity (relative to DMSO controls), EPHB2.

Test [2] addresses T2, panel of 374 wild-type kinases (Homo sapiens, UniProt Q9UKE5).
T2 construct: purchased Reaction Biology Corporation
Particulars: read-out: % Enzyme Activity (relative to DMSO controls), kinase TNIK.

The target in test [3] is T3, panel of 374 wild-type kinases (Homo sapiens, UniProt O95819).
T3 construct: purchased Reaction Biology Corporation
Particulars: read-out: % Enzyme Activity (relative to DMSO controls), HGK/MAP4K4.

Test [4] addresses T4, panel of 374 wild-type kinases (Homo sapiens, UniProt P20794).
T4 construct: purchased Reaction Biology Corporation
T4 sequence (P20794 1-623): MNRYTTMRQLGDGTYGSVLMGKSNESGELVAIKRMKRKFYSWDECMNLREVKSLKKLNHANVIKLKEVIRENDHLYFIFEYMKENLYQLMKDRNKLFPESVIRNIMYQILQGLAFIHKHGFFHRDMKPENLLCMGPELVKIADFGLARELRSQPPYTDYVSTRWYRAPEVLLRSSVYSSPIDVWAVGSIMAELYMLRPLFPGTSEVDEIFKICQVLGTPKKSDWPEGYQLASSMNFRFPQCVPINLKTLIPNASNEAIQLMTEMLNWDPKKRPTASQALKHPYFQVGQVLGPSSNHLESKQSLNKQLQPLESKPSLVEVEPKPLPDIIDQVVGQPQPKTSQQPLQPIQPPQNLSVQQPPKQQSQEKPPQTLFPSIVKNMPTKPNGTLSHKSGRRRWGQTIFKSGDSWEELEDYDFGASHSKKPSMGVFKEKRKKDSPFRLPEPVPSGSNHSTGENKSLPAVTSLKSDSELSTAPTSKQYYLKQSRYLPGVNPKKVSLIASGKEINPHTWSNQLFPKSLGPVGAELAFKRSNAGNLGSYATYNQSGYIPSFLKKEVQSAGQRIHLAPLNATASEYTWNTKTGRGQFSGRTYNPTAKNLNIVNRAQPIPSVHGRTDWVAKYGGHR
Particulars: read-out: % Enzyme Activity (relative to DMSO controls), MAK.

Test [5] deals with T5, panel of 374 wild-type kinases (Homo sapiens, UniProt Q13882).
T5 construct: purchased Reaction Biology Corporation
Particulars: read-out: % Enzyme Activity (relative to DMSO controls), BRK.

The target in test [6] is T6, panel of 374 wild-type kinases (Homo sapiens, UniProt Q96GX5).
T6 construct: purchased Reaction Biology Corporation
T6 sequence (Q96GX5 1-879): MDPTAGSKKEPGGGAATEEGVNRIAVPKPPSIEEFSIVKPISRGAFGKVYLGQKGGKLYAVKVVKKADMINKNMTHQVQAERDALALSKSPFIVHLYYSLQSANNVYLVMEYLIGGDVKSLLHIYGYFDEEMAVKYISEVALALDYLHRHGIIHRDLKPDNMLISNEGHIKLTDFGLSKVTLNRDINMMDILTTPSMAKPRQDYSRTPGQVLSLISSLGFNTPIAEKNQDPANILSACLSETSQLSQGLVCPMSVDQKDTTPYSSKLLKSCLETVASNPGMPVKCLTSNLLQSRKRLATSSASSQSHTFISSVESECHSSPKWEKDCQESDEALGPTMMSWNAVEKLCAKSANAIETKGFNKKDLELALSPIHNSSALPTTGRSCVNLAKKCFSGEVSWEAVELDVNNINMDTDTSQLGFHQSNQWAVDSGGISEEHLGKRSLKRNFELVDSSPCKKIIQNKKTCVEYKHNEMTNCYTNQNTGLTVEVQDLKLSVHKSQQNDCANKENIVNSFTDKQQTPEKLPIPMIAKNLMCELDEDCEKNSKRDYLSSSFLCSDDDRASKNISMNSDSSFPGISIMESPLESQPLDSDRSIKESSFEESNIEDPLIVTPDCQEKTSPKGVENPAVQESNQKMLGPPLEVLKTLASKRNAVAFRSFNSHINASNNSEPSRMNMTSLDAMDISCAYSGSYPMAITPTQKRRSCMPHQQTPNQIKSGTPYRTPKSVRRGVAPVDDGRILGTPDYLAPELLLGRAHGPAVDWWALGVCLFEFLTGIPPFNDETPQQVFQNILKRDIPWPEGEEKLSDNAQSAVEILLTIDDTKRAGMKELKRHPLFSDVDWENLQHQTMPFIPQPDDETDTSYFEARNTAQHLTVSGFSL
Particulars: MASTL, read-out: % Enzyme Activity (relative to DMSO controls).

T2 sequence (Q9UKE5 whole entry): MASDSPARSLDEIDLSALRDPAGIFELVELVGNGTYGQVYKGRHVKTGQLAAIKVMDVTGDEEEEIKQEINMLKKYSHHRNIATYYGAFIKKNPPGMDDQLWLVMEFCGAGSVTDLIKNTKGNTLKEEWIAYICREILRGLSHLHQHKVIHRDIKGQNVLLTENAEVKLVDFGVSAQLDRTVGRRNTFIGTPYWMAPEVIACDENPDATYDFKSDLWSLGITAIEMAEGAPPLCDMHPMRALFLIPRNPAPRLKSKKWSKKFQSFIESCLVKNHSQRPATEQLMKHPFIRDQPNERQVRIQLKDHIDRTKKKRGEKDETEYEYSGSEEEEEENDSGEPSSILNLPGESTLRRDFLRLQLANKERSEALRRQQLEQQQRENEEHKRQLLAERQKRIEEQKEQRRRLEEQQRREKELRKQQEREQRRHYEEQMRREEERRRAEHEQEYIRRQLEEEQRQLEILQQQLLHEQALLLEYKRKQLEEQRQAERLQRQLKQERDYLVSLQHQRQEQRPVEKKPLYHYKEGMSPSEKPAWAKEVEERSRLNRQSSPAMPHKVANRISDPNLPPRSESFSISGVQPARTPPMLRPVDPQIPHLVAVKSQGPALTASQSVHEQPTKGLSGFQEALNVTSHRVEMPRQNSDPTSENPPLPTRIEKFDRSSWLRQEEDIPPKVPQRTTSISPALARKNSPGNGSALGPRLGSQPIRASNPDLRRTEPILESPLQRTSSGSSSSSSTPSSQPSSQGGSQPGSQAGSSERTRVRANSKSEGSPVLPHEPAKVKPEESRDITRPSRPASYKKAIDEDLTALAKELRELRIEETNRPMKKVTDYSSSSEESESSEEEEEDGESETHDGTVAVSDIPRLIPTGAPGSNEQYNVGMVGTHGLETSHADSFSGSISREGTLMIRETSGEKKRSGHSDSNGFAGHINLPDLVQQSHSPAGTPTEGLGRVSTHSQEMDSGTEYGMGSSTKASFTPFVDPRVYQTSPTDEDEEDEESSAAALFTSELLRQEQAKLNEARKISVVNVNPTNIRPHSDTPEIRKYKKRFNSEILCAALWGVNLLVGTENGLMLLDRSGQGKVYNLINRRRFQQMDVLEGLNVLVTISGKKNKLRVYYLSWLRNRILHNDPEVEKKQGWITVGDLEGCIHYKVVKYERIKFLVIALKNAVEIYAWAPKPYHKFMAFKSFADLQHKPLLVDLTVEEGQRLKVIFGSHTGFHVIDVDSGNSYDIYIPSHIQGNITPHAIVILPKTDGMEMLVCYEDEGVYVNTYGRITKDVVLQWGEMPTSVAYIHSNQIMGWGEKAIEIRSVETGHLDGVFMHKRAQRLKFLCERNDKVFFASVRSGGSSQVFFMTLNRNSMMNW
T3 sequence (O95819 whole entry): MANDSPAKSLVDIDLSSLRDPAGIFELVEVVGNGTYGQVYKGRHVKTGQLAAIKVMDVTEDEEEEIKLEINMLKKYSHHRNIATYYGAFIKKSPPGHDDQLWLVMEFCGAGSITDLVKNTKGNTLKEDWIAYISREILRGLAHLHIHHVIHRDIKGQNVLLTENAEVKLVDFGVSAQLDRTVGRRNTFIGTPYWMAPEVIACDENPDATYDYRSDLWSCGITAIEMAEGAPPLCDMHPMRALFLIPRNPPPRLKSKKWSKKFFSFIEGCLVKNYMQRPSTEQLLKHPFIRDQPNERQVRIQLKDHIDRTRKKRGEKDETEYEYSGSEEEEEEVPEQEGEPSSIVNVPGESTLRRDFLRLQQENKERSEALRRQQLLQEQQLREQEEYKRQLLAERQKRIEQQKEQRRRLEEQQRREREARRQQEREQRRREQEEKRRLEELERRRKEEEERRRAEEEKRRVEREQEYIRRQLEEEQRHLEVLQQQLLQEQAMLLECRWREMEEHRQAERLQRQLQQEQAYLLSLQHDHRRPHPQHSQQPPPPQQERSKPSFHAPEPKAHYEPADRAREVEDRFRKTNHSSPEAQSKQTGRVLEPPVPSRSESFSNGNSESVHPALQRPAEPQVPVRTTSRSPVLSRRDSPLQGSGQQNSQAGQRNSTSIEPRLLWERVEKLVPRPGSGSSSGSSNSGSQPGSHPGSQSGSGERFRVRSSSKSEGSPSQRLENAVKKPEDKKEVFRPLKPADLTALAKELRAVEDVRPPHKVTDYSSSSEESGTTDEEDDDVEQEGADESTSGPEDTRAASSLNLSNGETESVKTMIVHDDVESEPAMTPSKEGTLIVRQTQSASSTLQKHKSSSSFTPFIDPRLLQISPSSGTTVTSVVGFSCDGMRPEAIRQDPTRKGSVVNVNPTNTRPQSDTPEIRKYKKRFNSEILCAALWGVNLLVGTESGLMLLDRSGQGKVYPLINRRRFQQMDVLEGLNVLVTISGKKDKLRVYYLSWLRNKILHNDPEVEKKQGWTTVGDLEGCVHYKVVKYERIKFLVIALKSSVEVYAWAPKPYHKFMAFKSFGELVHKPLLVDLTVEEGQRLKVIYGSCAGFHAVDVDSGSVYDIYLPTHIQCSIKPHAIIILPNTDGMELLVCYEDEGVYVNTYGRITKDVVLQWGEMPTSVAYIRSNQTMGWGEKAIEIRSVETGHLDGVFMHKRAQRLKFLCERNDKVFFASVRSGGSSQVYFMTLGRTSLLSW
T5 sequence (Q13882 whole entry): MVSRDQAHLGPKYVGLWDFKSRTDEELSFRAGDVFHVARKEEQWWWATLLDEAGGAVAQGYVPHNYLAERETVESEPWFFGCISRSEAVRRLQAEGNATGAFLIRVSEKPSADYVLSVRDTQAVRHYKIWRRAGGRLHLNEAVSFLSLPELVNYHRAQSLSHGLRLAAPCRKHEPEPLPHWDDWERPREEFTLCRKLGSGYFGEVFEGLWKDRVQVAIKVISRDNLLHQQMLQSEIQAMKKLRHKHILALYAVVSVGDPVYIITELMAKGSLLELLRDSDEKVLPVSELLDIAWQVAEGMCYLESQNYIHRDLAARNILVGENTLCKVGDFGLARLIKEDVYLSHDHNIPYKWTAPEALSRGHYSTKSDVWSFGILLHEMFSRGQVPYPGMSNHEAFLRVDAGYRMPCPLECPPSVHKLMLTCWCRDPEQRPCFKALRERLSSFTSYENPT

Regarding `O=C(Nc1cnn(-c2csc(C(=O)NC3COC3)c2)c1)Nc1ccccc1Cl` [Compound 17, 4-(4-(3-(2-chlorophenyl)ureido)-1H-pyrazol-1-yl)-N-(oxetan-3-yl)thiophene-2-carboxamide], the remaining activity at 5 µM turned out to be 101% in test [1]; 53.2% in test [2]; 81.1% in test [3]; 98.8% in test [4]; 118% in test [5]; 96.7% in test [6].

As for `O=C(Nc1cnn(-c2csc(C(=O)NC3COC3)c2)c1)Nc1c(F)cccc1Cl` [Compound 25, 4-(4-(3-(2-chloro-6-fluorophenyl)ureido)-1H-pyrazol-1-yl)-N-(oxetan-3-yl)thiophene-2-carboxamide], the remaining activity at 5 µM in test [1] was 99.9%; in test [2], 84.3%; in test [3], 90.4%; in test [4] it was 97.6%; in test [5], 85.7%; in test [6] it was 93.7%.

For the compound `Cc1sc(C(=O)NC2COC2)cc1-n1cc(NC(=O)Nc2c(F)cccc2Cl)cn1` [Compound 27, 4-(4-(3-(2-chloro-6-fluorophenyl)ureido)-1H-pyrazol-1-yl)-5-methyl-N-(oxetan-3-yl)thiophene-2-carboxamide], the remaining activity at 10 µM in test [1] (10 uM) was 109%; in test [2] (10 uM), 94.5%; in test [3] (10 uM), 93.4%; in test [4] (10 uM), 120%; in test [5] (10 uM), 78.9%; in test [6] (10 uM), 110%.
